Test results taken from the supplement of paper PMC10307832.

Experiments:
Assay in all cases: relative viability (nuclei count vs DMSO), 5 days (fraction); higher = more cells survive
SW 900 = system: SW 900
Procedure, shortened: (§1)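 The day after seeding in 1536-well plates, lung cancer cell lines were treated by pin tool with a single drug, or with a fixed anchor-drug dose together with five library-drug doses (not always all listed) in √10 steps. After 5 days, a combined fix-and-stain solution (final 0.05% Triton X-100, 1% formaldehyde, 1 ug/ml Hoechst) was added. Nuclei counted on 4× images gave relative viability as treated counts over vehicle counts, reported as the median of duplicate plates.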

SW 1573 = system: SW 1573
Procedure, shortened: as §1

LOU-NH91 = system: LOU-NH91
Procedure, shortened: as §1

NCI-H1793 = system: NCI-H1793
Procedure, shortened: as §1

HOP-62 = system: HOP-62
Procedure, shortened: as §1

EMC-BAC-2 = system: EMC-BAC-2
Procedure, shortened: as §1

NCI-H727 = system: NCI-H727
Procedure, shortened: as §1

NCI-H2405 = system: NCI-H2405
Procedure, shortened: as §1

NCI-H2170 = system: NCI-H2170
Procedure, shortened: as §1

NCI-H650 = system: NCI-H650
Procedure, shortened: as §1

EPLC-272H = system: EPLC-272H
Procedure, shortened: as §1

NCI-H1437 = system: NCI-H1437
Procedure, shortened: as §1

NCI-H2009 = system: NCI-H2009
Procedure, shortened: as §1

NCI-H441 = system: NCI-H441
Procedure, shortened: as §1

NCI-H520 = system: NCI-H520
Procedure, shortened: as §1

NCI-H460 = system: NCI-H460
Procedure, shortened: as §1

NCI-H2126 = system: NCI-H2126
Procedure, shortened: as §1

ChaGo-K-1 = system: ChaGo-K-1
Procedure, shortened: as §1

NCI-H2023 = system: NCI-H2023
Procedure, shortened: as §1

NCI-H2347 = system: NCI-H2347
Procedure, shortened: as §1

NCI-H647 = system: NCI-H647
Procedure, shortened: as §1

## COCC1(CO)C(=O)C2CCN1CC2 (stereo not drawn) [PRIMA-1MET] + COc1cc2c(Oc3ccc(NC(=O)C4(C(=O)Nc5ccc(F)cc5)CC4)cc3F)ccnc2cc1OCCCN1CCOCC1 [Foretinib] (partner 0.25 µM)
SW 900; first compound 0.2 µM
  relative viability: 0.928
SW 900; first compound 0.6325 µM
  relative viability: 1.13
SW 900; first compound 2 µM
  relative viability: 0.699
SW 900; first compound 6.325 µM
  relative viability: 0.451
SW 900; first compound 20 µM
  relative viability: 0.051
SW 1573; first compound 0.2 µM
  relative viability: 1.36
SW 1573; first compound 0.6325 µM
  relative viability: 0.404
SW 1573; first compound 2 µM
  relative viability: 0.777
SW 1573; first compound 6.325 µM
  relative viability: 0.485
SW 1573; first compound 20 µM
  relative viability: 0.0333
LOU-NH91; first compound 0.2 µM
  relative viability: 1.04
LOU-NH91; first compound 0.6325 µM
  relative viability: 0.992
LOU-NH91; first compound 2 µM
  relative viability: 0.861
LOU-NH91; first compound 6.325 µM
  relative viability: 1
LOU-NH91; first compound 20 µM
  relative viability: 0.8
NCI-H1793; first compound 0.2 µM
  relative viability: 0.858
NCI-H1793; first compound 0.6325 µM
  relative viability: 0.563
NCI-H1793; first compound 6.325 µM
  relative viability: 0.846
NCI-H1793; first compound 20 µM
  relative viability: 0.491
HOP-62; first compound 0.2 µM
  relative viability: 1.18
HOP-62; first compound 0.6325 µM
  relative viability: 1.07
HOP-62; first compound 2 µM
  relative viability: 0.931
HOP-62; first compound 6.325 µM
  relative viability: 1.1
HOP-62; first compound 20 µM
  relative viability: 0.799
EMC-BAC-2; first compound 0.2 µM
  relative viability: 1.17
EMC-BAC-2; first compound 0.6325 µM
  relative viability: 1.01
EMC-BAC-2; first compound 6.325 µM
  relative viability: 1.04
EMC-BAC-2; first compound 20 µM
  relative viability: 1.03
NCI-H727; first compound 0.2 µM
  relative viability: 0.636
NCI-H727; first compound 0.6325 µM
  relative viability: 0.674
NCI-H727; first compound 2 µM
  relative viability: 0.782
NCI-H727; first compound 6.325 µM
  relative viability: 1.03
NCI-H727; first compound 20 µM
  relative viability: 0.44
NCI-H2405; first compound 0.2 µM
  relative viability: 1.03
NCI-H2405; first compound 0.6325 µM
  relative viability: 1.03
NCI-H2405; first compound 6.325 µM
  relative viability: 1.03
NCI-H2405; first compound 20 µM
  relative viability: 0.506
NCI-H2170; first compound 0.2 µM
  relative viability: 1.04
NCI-H2170; first compound 0.6325 µM
  relative viability: 0.921
NCI-H2170; first compound 2 µM
  relative viability: 0.945
NCI-H2170; first compound 6.325 µM
  relative viability: 1.01
NCI-H2170; first compound 20 µM
  relative viability: 0.94
NCI-H650; first compound 0.2 µM
  relative viability: 1.34
NCI-H650; first compound 2 µM
  relative viability: 0.917
NCI-H650; first compound 6.325 µM
  relative viability: 1.1
NCI-H650; first compound 20 µM
  relative viability: 0.644
EPLC-272H; first compound 2 µM
  relative viability: 0.603
EPLC-272H; first compound 6.325 µM
  relative viability: 0.896
EPLC-272H; first compound 20 µM
  relative viability: 0.105
NCI-H1437; first compound 0.2 µM
  relative viability: 1.32
NCI-H1437; first compound 0.6325 µM
  relative viability: 1.21
NCI-H1437; first compound 2 µM
  relative viability: 1.24
NCI-H1437; first compound 6.325 µM
  relative viability: 1.21
NCI-H1437; first compound 20 µM
  relative viability: 1.17
NCI-H2009; first compound 0.2 µM
  relative viability: 1.33
NCI-H2009; first compound 0.6325 µM
  relative viability: 1.17
NCI-H2009; first compound 2 µM
  relative viability: 1.22
NCI-H2009; first compound 6.325 µM
  relative viability: 1.22
NCI-H2009; first compound 20 µM
  relative viability: 0.52
NCI-H441; first compound 0.2 µM
  relative viability: 0.954
NCI-H441; first compound 0.6325 µM
  relative viability: 0.908
NCI-H441; first compound 2 µM
  relative viability: 0.988
NCI-H441; first compound 6.325 µM
  relative viability: 1
NCI-H441; first compound 20 µM
  relative viability: 0.496
NCI-H520; first compound 0.2 µM
  relative viability: 0.794
NCI-H520; first compound 0.6325 µM
  relative viability: 0.62
NCI-H520; first compound 2 µM
  relative viability: 0.669
NCI-H520; first compound 6.325 µM
  relative viability: 0.715
NCI-H520; first compound 20 µM
  relative viability: 0.0989
NCI-H460; first compound 0.2 µM
  relative viability: 1.08
NCI-H460; first compound 0.6325 µM
  relative viability: 0.949
NCI-H460; first compound 2 µM
  relative viability: 0.963
NCI-H460; first compound 6.325 µM
  relative viability: 0.944
NCI-H460; first compound 20 µM
  relative viability: 0.359
NCI-H2126; first compound 0.2 µM
  relative viability: 1.3
NCI-H2126; first compound 0.6325 µM
  relative viability: 0.993
NCI-H2126; first compound 2 µM
  relative viability: 1.22
NCI-H2126; first compound 6.325 µM
  relative viability: 1.23
NCI-H2126; first compound 20 µM
  relative viability: 1.13
ChaGo-K-1; first compound 0.2 µM
  relative viability: 1.03
ChaGo-K-1; first compound 0.6325 µM
  relative viability: 0.838
ChaGo-K-1; first compound 2 µM
  relative viability: 0.911
ChaGo-K-1; first compound 6.325 µM
  relative viability: 1.01
ChaGo-K-1; first compound 20 µM
  relative viability: 0.859
NCI-H2023; first compound 0.2 µM
  relative viability: 1.03
NCI-H2023; first compound 0.6325 µM
  relative viability: 0.781
NCI-H2023; first compound 2 µM
  relative viability: 0.827
NCI-H2023; first compound 6.325 µM
  relative viability: 0.915
NCI-H2023; first compound 20 µM
  relative viability: 0.813
NCI-H2347; first compound 0.2 µM
  relative viability: 0.876
NCI-H2347; first compound 0.6325 µM
  relative viability: 0.724
NCI-H2347; first compound 6.325 µM
  relative viability: 1.1
NCI-H2347; first compound 20 µM
  relative viability: 0.814
NCI-H647; first compound 0.2 µM
  relative viability: 1.29
NCI-H647; first compound 0.6325 µM
  relative viability: 0.973
NCI-H647; first compound 2 µM
  relative viability: 1.08
NCI-H647; first compound 6.325 µM
  relative viability: 1.22
NCI-H647; first compound 20 µM
  relative viability: 1.16
